This data set can be described thus: Saturated solubility of BA in self emulsifying lipid (SELF) samples, UV 320 nm. It is filed as physicochemical. On the procedure:
Saturated Solubility Test for Liquid SELF Samples: 2 ml of each liquid SELF was measured into 8 ml screw cap glass bottle using a Finnpipette. Aliquots of 50 mg of the API were then added until the mixture appeared to be saturated. The mixtures were sonicated for 30 minutes, and then observed to see if saturation had been maintained. Aliquots of 25 mg of the API were further added to non-saturated samples while stirring; these were sonicated for a further 30 minutes. This process was repeated until saturation was attained and maintained after sonication.
The liquid samples were then placed in the Variomatic water bath at 25° C. and left to stir for two nights. Each of the SELF samples was purged with nitrogen gas after use to minimize oxidation.
The saturated liquid samples were centrifuged at a speed of 4000 rpm for 10 minutes at 25° C.
Saturated Solubility Test for Semi-Solid SELF Samples: Prior to dispensing, semi-solid lipids were melted in a dry oven at 60° C. The semi-solids were dispensed into screw cap bottles; aliquots of the API were added to attain and maintain saturation. The saturated semi-solids were left stirring at 60° C.
The following day the stirrer was switched off but heating was maintained at 60° C. for 1 hour. This was to allow the dispersed solid particles to sediment. 0.1 ml was taken from the top clear layer of each of the saturated semi-solid samples and diluted with acetonitrile.
UV Analysis: The saturated samples and the lipid vehicles were diluted with acetonitrile at the same ratio. The samples were diluted with acetonitrile to obtain an absorbance between 0.1 to 1. The absorbance of the diluted lipid vehicles were used as the baseline for the absorbance readings of the active sample. The diluted samples were scanned at a fixed wavelength of 320 nm. The concentration of the API was calculated using the E^11 value, derived from the API concentration in acetonitrile.
Saturated Solubility: Saturated solubility was carried out on the six SELF samples (Gattefosse) that were miscible with acetonitrile. These samples were stirred over two nights.
Saturated solubility of freshly prepared lipid samples: Saturated solubility was carried out on each of the freshly prepared semi-solid lipid samples as described above. The results in table 9-8 are based on equilibration of saturated samples over two nights.

≈ marks a conversion by molar mass, not a printed value. Where “and” joins values, the source holds several entries; their conditions need not be identical. Identical values can stand only once.

With `NC(=O)c1ccc(I)c([N+](=O)[O-])c1` [BA, 4-iodo-3-nitrobenzamide], the “Solubility Enhancement vs. water” value by setting is: (SELF 27A) 1074; (SELF 27B) 524; (SELF 27D) 699; (SELF 27E) 675 and 532; (SELF 27F) 804; (SELF 27G) 695. Also, the “Mean Conc.” value runs as follows: (SELF 27A (Gattefosse, semi-solid), after 2 nights) 215000 µg/mL; (SELF 27A (Gattefosse, semi-solid), after 2 nights, listed as API) 214730 µg/mL; (SELF 27B (Gattefosse, semi-solid), after 2 nights) 105000 µg/mL; (SELF 27D (Gattefosse, liquid), after 2 nights) 140000 µg/mL; (SELF 27E (Gattefosse, liquid), after 2 nights) 107000 µg/mL; (SELF 27F (Gattefosse, liquid), after 2 nights) 161000 µg/mL. The “Mean Conc.” value by setting is: (SELF 27G (Gattefosse, semi-solid), after 2 nights) 139000 µg/mL; (Water) 200 µg/mL; (freshly prepared SELF F1, after 2 nights) 185000 µg/mL; (freshly prepared SELF F1, after 2 nights, listed as API) 184760 µg/mL; (freshly prepared SELF F3, after 2 nights) 87000 µg/mL; (freshly prepared SELF F4, after 2 nights) 42000 µg/mL. Further, the “Mean Conc.” value runs as follows: (freshly prepared SELF F5, after 2 nights) 75000 µg/mL; (freshly prepared SELF F6, after 2 nights) 76000 µg/mL; (freshly prepared SELF F7, after 2 nights) 135000 µg/mL. For the setting “water, read-out: Mean Conc.”, the solubility is 200 µg/mL (≈ 685 µM).

The record behind these values is patent US20100160442A1, “FORMULATIONS FOR CANCER TREATMENT” (priority 2006, published 2010).
